Assay results taken from US20240293554A1, “QUATERNIZED NICOTINAMIDE ADENINE DINUCLEOTIDE SALVAGE PATHWAY INHIBITOR CONJUGATES” (priority 2017, published 2024).

What was measured:
[1] = system: HepG2; assay: CellTiter-Glo cytotoxicity assay, HepG2; type: cell-based; conditions: HepG2 (hepatocellular carcinoma), 96 h
Procedure: (§1) In vitro cytotoxicity assays: Cells cultured in log-phase growth were seeded for 24 h in 96-well plates containing 150 μL RPMI 1640 supplemented with 20% FBS. Serial dilutions of free drugs or antibody-drug conjugates in cell culture media were prepared at 4× working concentrations; 50 μL of each dilution was added to the 96-well plates. Following addition of ADC, cells were incubated with test articles for 4 d at 37° C. After 96 h, growth inhibition was assessed by CellTiter-Glo™ (Promega, Madison, WI) and luminescence was measured on a plate reader. The IC50 value is defined here as the concentration that results in a 50% reduction in cell growth relative to untreated controls.
(§2) Example 89. Binding and cytoxicity of NAMPTi compounds.
(§3) Karpas 299 (non-Hodgkin's lymphoma), L540cy (Hodgkin's lymphoma), Ramos (Burkitt's lymphoma), HepG2 (hepatocellular carcinoma), Hep3B (hepatocellular carcinoma). NAMPTi compounds of Table 1 have the following structures: […]

[2] = target: purified NAMPT (Homo sapiens, UniProt P43490); conditions: read-out: FP assay (IC50); NAMPT 120 nM, fluorescent probe 30 nM, 4 hours room temp
[3] = system: L540cy; assay: CellTiter-Glo cytotoxicity assay, L540cy; type: cell-based; conditions: L540cy (Hodgkin's lymphoma), 96 h
Procedure: as §1, §2, §3

[4] = system: Ramos; assay: CellTiter-Glo cytotoxicity assay, Ramos; type: cell-based; conditions: Ramos (Burkitt's lymphoma), 96 h
Procedure: as §1, §2, §3

[5] = system: L540cy xenograft; assay: L540cy Hodgkin's lymphoma xenograft model; type: in vivo, SCID mice; conditions: cAC10 ADC (8 drugs per antibody) from the named Drug Linker compound; for tumor growth delay: single 1 mg/kg dose ip on day 8, tumors ~100 mm^3; for tolerability (weight loss, outward signs of toxicity): single 1 mg/kg dose ip, SCID mice
Procedure: In vivo xenograft models. All experiments were conducted in concordance with the Animal Care and Use Committee in a facility fully accredited by the Association for Assessment and Accreditation of Laboratory Animal Care. Efficacy experiments were conducted in the L540cy Hodgkin's lymphoma model. Tumor cells, as a cell suspension, were implanted sub-cutaneous in immune-compromised SCID mice. Upon tumor engraftment, mice were randomized to study groups (5 mice per group) when the average tumor volume reached about 100 mm^3. The ADC or controls were dosed once via intraperitoneal injection. Tumor volume as a function of time was determined using the formula (L×W^2)/2. Animals were euthanized when tumor volumes reached 750 mm^3. Mice showing durable regressions were terminated after 10-12 weeks post implant.
[…] chimeric antibody cAC10 were prepared from Drug Linker compounds 5 (MDPr-GlucQ-FK866), 12 (MDPr-GlucQ-6050) and 26 (MDPr-GlucQ-6553) to provide ADCs carrying 8 drugs per antibody. Animals were implanted with tumor cells on day 0. Tumors reached ˜100 mm^3 on day 8, and were then treated with a single 1 mg/kg dose (ip) of ADCs.

Sequence of purified NAMPT (P43490 whole entry): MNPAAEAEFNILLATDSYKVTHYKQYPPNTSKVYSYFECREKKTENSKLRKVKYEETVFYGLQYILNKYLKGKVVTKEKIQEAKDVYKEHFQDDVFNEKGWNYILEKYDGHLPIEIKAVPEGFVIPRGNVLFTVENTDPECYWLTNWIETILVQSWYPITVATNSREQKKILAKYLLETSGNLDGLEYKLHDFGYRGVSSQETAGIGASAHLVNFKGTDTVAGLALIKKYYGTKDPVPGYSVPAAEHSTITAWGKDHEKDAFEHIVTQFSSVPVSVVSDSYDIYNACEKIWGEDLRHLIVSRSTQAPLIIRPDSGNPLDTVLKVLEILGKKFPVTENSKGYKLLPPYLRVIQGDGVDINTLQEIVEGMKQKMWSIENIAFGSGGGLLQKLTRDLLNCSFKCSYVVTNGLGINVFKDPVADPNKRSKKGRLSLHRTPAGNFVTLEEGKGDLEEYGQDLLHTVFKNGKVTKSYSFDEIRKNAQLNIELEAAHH

Row | SMILES | IC50 [1] | IC50 [2] | IC50 [3] | IC50 [4] | tumor growth delay [5] | tolerability (weight loss, outward signs of toxicity) [5]
1 | CC(C)(C)OC(=O)NC[C@@H](C(=O)NCCC(=O)Nc1cc(C[n+]2ccn3cc(C(=O)NCc4ccc(S(=O)(=O)c5cc(F)cc(F)c5)cc4)ccc32)ccc1O[C@@H]1O[C@H](C(=O)O)[C@@H](O)[C@H](O)[C@H]1O)N1C(=O)C=CC1=O [Compound 29, 1-(3-(3-((S)-3-((tert-butoxycarbonyl)amino)-2-(2,5-dioxo-2,5-dihydro-1H-pyrrol-1-yl)propanamido)propanamido)-4-(((2S,3R,4S,5S,6S)-6-carboxy-3,4,5-trihydroxytetrahydro-2H-pyran-2-yl)oxy)benzyl)-6-((4-((3,5-difluorophenyl)-sulfonyl)benzyl)carbamoyl)imidazo[1,2-a]pyridin-1-ium 2,2,2-trifluoroacetate] | 1.08 nM | 36 nM | 0.78 nM | 0.71 nM |  | 
2 | NCCC(=O)Nc1cc(C[n+]2ccn3cc(C(=O)NCc4ccc(S(=O)(=O)c5cc(F)cc(F)c5)cc4)ccc32)ccc1O[C@@H]1O[C@H](C(=O)O)[C@@H](O)[C@H](O)[C@H]1O [Compound 28, 1-(3-(3-ammoniopropanamido)-4-(((2S,3R,4S,5S,6S)-6-carboxy-3,4,5-trihydroxytetrahydro-2H-pyran-2-yl)oxy)benzyl)-6-((4-((3,5-difluorophenyl)-sulfonyl)benzyl)carbamoyl)imidazo[1,2-a]pyridin-1-ium 2,2,2-trifluoroacetate] | 8 nM | 47 nM | 8.5 nM | 1 nM |  | 
3 | NC[C@@H](C(=O)NCCC(=O)Nc1cc(C[n+]2cccc(/C=C/C(=O)NCCCCC3CCN(C(=O)c4ccccc4)CC3)c2)ccc1O[C@@H]1O[C@H](C(=O)O)[C@@H](O)[C@H](O)[C@H]1O)N1C(=O)C=CC1=O [Compound 5, 1-(3-(3-((S)-3-amino-2-(2,5-dioxo-2,5-dihydro-1H-pyrrol-1-yl)propanamido)propanamido)-4-(((2S, 3R, 4S, 5S, 6S)-6-carboxy-3,4,5-trihydroxy-tetrahydro-2H-pyran-2-yl)oxy)benzyl)-3-((E)-3-((4-(1-benzoylpiperidin-4-yl)butyl)amino)-3-oxoprop-1-en-1-yl)pyridin-1-ium 2,2,2-trifluoroacetate] |  |  |  |  | varying levels of tumor growth delay | well-tolerated, with no weight loss or outward signs of toxicity observed
4 | NC[C@@H](C(=O)NCCC(=O)Nc1cc(C[n+]2cccc(/C=C/C(=O)NCCCCC3CCN(C(=O)c4cccc(N)c4)CC3)c2)ccc1O[C@@H]1O[C@H](C(=O)O)[C@@H](O)[C@H](O)[C@H]1O)N1C(=O)C=CC1=O [Compound 12, 1-(3-(3-((S)-3-ammonio-2-(2,5-dioxo-2,5-dihydro-1H-pyrrol-1-yl)propanamido)propanamido)-4-(((2S,3R,4S,5S,6S)-6-carboxy-3,4,5-trihydroxytetrahydro-2H-pyran-2-yl)oxy)benzyl)-3-((E)-3-((4-(1-(3-ammoniobenzoyl)piperidin-4-yl)butyl)amino)-3-oxoprop-1-en-1-yl)pyridin-1-ium 2,2,2-trifluoroacetate] |  |  |  |  | varying levels of tumor growth delay | well-tolerated, with no weight loss or outward signs of toxicity observed
5 | CN(CC1(CO)CCCC1)C(=O)CCCCCCCN/C(=N\C#N)Nc1cc[n+](Cc2ccc(O[C@@H]3O[C@H](C(=O)O)[C@@H](O)[C@H](O)[C@H]3O)c(NC(=O)CCNC(=O)CCN3C(=O)C=CC3=O)c2)cc1 [Compound 26, 1-(4-(((2S,3R,4S,5S,6S)-6-carboxy-3,4,5-trihydroxytetrahydro-2H-pyran-2-yl)oxy)-3-(3-(3-(2,5-dioxo-2,5-dihydro-1H-pyrrol-1-yl)propanamido)-propanamido)benzyl)-4-((E)-2-cyano-3-(8-(((1-(hydroxymethyl)cyclopentyl)methyl)-(methyl)amino)-8-oxooctyl)guanidino)pyridin-1-ium 2,2,2-trifluoroacetate] |  |  |  |  | varying levels of tumor growth delay | well-tolerated, with no weight loss or outward signs of toxicity observed
